Measurements: US12048680B2, “Use of Gemfibrozil and derivative thereof for treatment and/or prevention of neurodegenerative disease” (Kunming Institute of Zoology Chinese Academy of Sciences, priority 2018, dated 2024)

Key:
[1] = system: APP/PS1ΔE9 mice; experiment: Water maze test of spatial learning and memory; format: in vivo, mouse
Method: Gemfibrozil was administered to 8-month-old APP/PS1ΔE9 mice (male and female halves). Gemfibrozil was first dissolved in dimethyl sulfoxide (DMSO) at a concentration of 50 mg/mL, and then diluted to a final concentration of 50 μg/mL with mouse drinking water to obtain a drug solution. The mice in the administration group were allowed to freely drink the drug solution containing gemfibrozil, in which the final concentration of DMSO in the solution was 0.1%; and the mice in the control group were allowed to drink water containing 0.1% DMSO freely. All drinking devices contained with Gemfibrozil were wrapped in aluminum foil to prevent decomposition by exposure. During dosing, the drug solution was replaced every 2 days. Mice were measured daily for water consumption. After 2 months of dosing, all mice were subjected to behavioural experiments. Mice were placed in the laboratory to be behaviourally tested one hour prior to the start of daily behavioural studies, and all behavioural experiments were completed between 9 and 17 o'clock. All experiments involving animals were approved by Animal Ethics Committee of the Kunming Institute of Zoology, CAS. According to the application, a water maze experiment was adopted to evaluate the learning and memory capacity of AD mice after Gemfibrozil was administered for 2 months. The parameters of the used water maze were as follows: a circular pool having a diameter of 120 cm, a height of 50 cm, and a water depth of about 30 cm; and a cylindrical plastic lifesaving platform having a diameter of 10 cm, a height of 29 cm, and submerged 1 cm below the water surface. The water temperature was kept at 20+1° C. During the test, in order to prevent the mice from seeing the platform, white plastic foam was added to the water to spread on the water surface evenly until the lifesaving platform could not be seen, and the water was replaced every two days. The circular pool was divided into four quadrants, and the lifesaving platform was placed in the center of the third quadrant. A camera was arranged right above the water maze and used for recording the movement track of the mice. Mice were placed from the rearing room into a room for the water maze experiment for 1 hour before the start of each day of the experiment. The mice were trained for 7 consecutive days. The starting position was randomly changed among the four quadrants, the mice were allowed to explore freely for 1 minute, and the time required for the mice to find a lifesaving platform (also known as latency) was measured. If the mouse was able to find the platform within 1 minute, it was allowed to sit on the platform for 20 seconds, so that it can remember the location of the lifesaving platform based on surrounding markers. […] Each mouse was trained at 90-minute intervals each day and randomly placed in the water maze in three different quadrants each day to look for the lifesaving platform. After 4 hours after the last training on the 7th day, the lifesaving platform of the water maze was removed. The mice were put into water, and the time, the distance and the speed of the mice around the lifesaving platform within 1 minute and the number of shuttles at the position of the lifesaving platform were measured, thereby evaluating the short-term memory capacity of the mice. After 72 hours after the last training on the 7th day, the lifesaving platform of the water maze was removed again. The mice were put into water, and the time, the distance and the speed of the mice around the lifesaving platform within 1 minute and the number of shuttles at the position of the lifesaving platform were measured, thereby evaluating the long-term memory capacity of the mice. During the experiment, the surrounding environment of the water maze should be kept consistent to avoid the influence of environmental factors. The behavior of the mice was followed and videotaped throughout the experiment using SMART 3.0 software (Panlab HARVARD, MA, USA). […]

[2] = system: soluble Aβ; experiment: Western blot of soluble Aβ in mouse brain tissue; format: in vivo
Method: Gemfibrozil was administered to 8-month-old APP/PS1ΔE9 mice (male and female halves). Gemfibrozil was first dissolved in dimethyl sulfoxide (DMSO) at a concentration of 50 mg/mL, and then diluted to a final concentration of 50 μg/mL with mouse drinking water to obtain a drug solution. The mice in the administration group were allowed to freely drink the drug solution containing gemfibrozil, in which the final concentration of DMSO in the solution was 0.1%; and the mice in the control group were allowed to drink water containing 0.1% DMSO freely. All drinking devices contained with Gemfibrozil were wrapped in aluminum foil to prevent decomposition by exposure. During dosing, the drug solution was replaced every 2 days. Mice were measured daily for water consumption. After 2 months of dosing, all mice were subjected to behavioural experiments. Mice were placed in the laboratory to be behaviourally tested one hour prior to the start of daily behavioural studies, and all behavioural experiments were completed between 9 and 17 o'clock. All experiments involving animals were approved by Animal Ethics Committee of the Kunming Institute of Zoology, CAS.
4. Expression of Related Proteins by Western Blot
The specific steps were as follows:
1) Extracting protein: the protein was extracted from the mouse brain tissue using western and an IP lysate from Beyotime Biotechnology.
2) Determining protein concentration: HM and U251-APP cells and mouse brain proteins were measured using a BCA protein quantification kit, and the extracted proteins were used for subsequent detection.
3) Pretreatment before loading: each sample was loaded at 20 μg depending on the protein concentration. The protein denaturant anhydrous mercaptoethanol was first added to denature the proteins at 95° C. for 6 minutes. After denaturation, the sample was placed on ice and stood for 5 minutes.
4) Loading and performing ectrophoresis: the denatured protein samples were loaded to the corresponding wells to start electrophoresis.
5) Membrane transfer treatment: according to the ratio of the reagent required by 1 L of a membrane transfer solution (10× membrane transfer solution: anhydrous methanol:water=1:2:7), a certain amount of the membrane transfer solution was prepared, the sponge and filter paper were immersed in the membrane transfer solution, and the PVDF membrane was previously immersed in anhydrous methanol for 30 seconds to be activated. A membrane transfer plate was manufactured according to the sequence of sponge-filter paper-glue-membrane-filter paper-sponge (the protein was negatively charged, and was transferred to a PVDF membrane towards the positive electrode). […]

[3] = hippocampus and cortex of APP/PS1ΔE9 mice, Western blot (A-B in FIG. 4)

## Cc1ccc(C)c(OCCCC(C)(C)C(=O)O)c1 [Gemfibrozil, 2,2-dimethyl-5-(2,5-dimethylphenoxy) pentanoic acid]
[1]; 8-month-old APP/PS1ΔE9 mice, 50 μg/mL in drinking water for 2 months, 7 days of training, vs control group
  learning ability: significantly improved
[1]; 4 hours after the last training, platform removed, vs control group
  short-term memory capacity: significantly improved
[1]; 72 hours after the last training, platform removed
  long-term memory capacity: significantly improved
[1]; APP/PS1ΔE9 mice, 50 μg/mL in drinking water for 2 months, training phase, vs control group (A in FIG. 1)
  escape time (latency) required to reach the lifesaving platform: less than the control group
[1]; APP/PS1ΔE9 mice, 50 μg/mL in drinking water for 2 months, training phase, vs control group (B in FIG. 1)
  range required to reach the lifesaving platform: less than the control group
[1]; long-term memory, 72 hours after the last training (G in FIG. 1)
  lingering time in the target quadrant: increase
[1]; long-term memory, 72 hours after the last training (H in FIG. 1)
  distance in the target quadrant: increase
[1]; long-term memory, 72 hours after the last training (I in FIG. 1)
  number of shuttles at the position of the lifesaving platform: increases
[1]; short-term memory, 4 hours after the last training (D in FIG. 1)
  lingering time in the target quadrant: increase
[1]; short-term memory, 4 hours after the last training (E in FIG. 1)
  distance in the target quadrant: increase
[1]; short-term memory, 4 hours after the last training (F in FIG. 1)
  number of shuttles at the position of the lifesaving platform: increases
[2]; between groups, Western blot (A-B in FIG. 4)
  ratio of Aβ42 and Aβ40 (soluble): did not change significantly
[2]; [3]
  level of Aβ40 (soluble): decreased significantly
  level of Aβ42 (soluble): decreased significantly
[2]; hippocampus and cortex of APP/PS1ΔE9 mice, vs control group (A-B in FIG. 4)
  soluble Aβ: significantly reduced
